Target: T1, glutathione reductase (GR) (Saccharomyces cerevisiae, UniProt P41921)
T1 sequence (P41921 1-483): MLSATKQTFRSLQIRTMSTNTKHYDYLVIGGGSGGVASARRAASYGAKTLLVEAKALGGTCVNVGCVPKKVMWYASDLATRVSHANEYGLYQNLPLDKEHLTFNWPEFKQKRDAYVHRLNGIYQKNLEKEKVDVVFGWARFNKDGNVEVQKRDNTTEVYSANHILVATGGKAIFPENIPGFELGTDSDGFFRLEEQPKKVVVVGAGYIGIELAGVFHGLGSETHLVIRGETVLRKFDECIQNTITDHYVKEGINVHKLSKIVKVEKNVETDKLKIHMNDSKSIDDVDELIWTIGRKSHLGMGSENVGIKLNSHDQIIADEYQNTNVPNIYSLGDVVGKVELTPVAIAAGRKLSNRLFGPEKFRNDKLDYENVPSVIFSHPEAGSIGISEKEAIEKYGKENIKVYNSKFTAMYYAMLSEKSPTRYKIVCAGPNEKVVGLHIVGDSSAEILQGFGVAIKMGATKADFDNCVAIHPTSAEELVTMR
Assay: enzyme activity assay versus GSH concentration
Type: biochemical

N[C@@H](CCC(=O)N[C@@H](CS)C(=O)NCC(=O)O)C(=O)O [GSH, Glutathione]
IC50: ~10 mM

From paper PMC6348771 (Redox Biology, 2018)
